The NIST ThermoML archive (doi:10.1021/je300590v)
Numbers after ± are expanded uncertainties.

Settings: Vibrating tube method

## O=C=O [carbon dioxide]
273.15 K, 1001 kPa, Gas
  mass density: 21.2 ± 0.2 kg/m3
273.15 K, 2001 kPa, Gas
  mass density: 45.7 ± 0.2 kg/m3
273.15 K, 3001 kPa, Gas
  mass density: 77.3 ± 0.2 kg/m3
273.15 K, 3300 kPa, Gas
  mass density: 89.9 ± 0.2 kg/m3
273.15 K, 3500 kPa, Liquid
  mass density: 928.1 ± 0.9 kg/m3
273.15 K, 4001 kPa, Liquid
  mass density: 932.4 ± 0.9 kg/m3
273.15 K, 5001 kPa, Liquid
  mass density: 940.7 ± 0.9 kg/m3
273.15 K, 6000 kPa, Liquid
  mass density: 948.2 ± 0.9 kg/m3
273.15 K, 7000 kPa, Liquid
  mass density: 955.3 ± 0.9 kg/m3
273.15 K, 8003 kPa, Liquid
  mass density: 961.9 ± 0.8 kg/m3
273.15 K, 9001 kPa, Liquid
  mass density: 968.1 ± 0.8 kg/m3
273.15 K, 10002 kPa, Liquid
  mass density: 974.1 ± 0.8 kg/m3
273.15 K, 11003 kPa, Liquid
  mass density: 979.7 ± 0.8 kg/m3
273.15 K, 12000 kPa, Liquid
  mass density: 985.1 ± 0.8 kg/m3
273.15 K, 13004 kPa, Liquid
  mass density: 990.1 ± 0.8 kg/m3
273.15 K, 14002 kPa, Liquid
  mass density: 995 ± 0.8 kg/m3
273.15 K, 15001 kPa, Liquid
  mass density: 999.7 ± 0.8 kg/m3
273.15 K, 16002 kPa, Liquid
  mass density: 1004.3 ± 0.7 kg/m3
273.15 K, 17000 kPa, Liquid
  mass density: 1008.6 ± 0.7 kg/m3
273.15 K, 18001 kPa, Liquid
  mass density: 1012.8 ± 0.7 kg/m3
273.15 K, 19001 kPa, Liquid
  mass density: 1017 ± 0.7 kg/m3
273.15 K, 20000 kPa, Liquid
  mass density: 1020.8 ± 0.7 kg/m3
283.15 K, 1000 kPa, Gas
  mass density: 20.4 ± 0.2 kg/m3
283.15 K, 2001 kPa, Gas
  mass density: 43.1 ± 0.2 kg/m3
283.15 K, 3001 kPa, Gas
  mass density: 70.9 ± 0.2 kg/m3
283.15 K, 4000 kPa, Gas
  mass density: 108.4 ± 0.3 kg/m3
283.15 K, 4400 kPa, Gas
  mass density: 130.1 ± 0.3 kg/m3
283.15 K, 5001 kPa, Liquid
  mass density: 869.1 ± 1.1 kg/m3
283.15 K, 6003 kPa, Liquid
  mass density: 882.2 ± 1 kg/m3
283.15 K, 7000 kPa, Liquid
  mass density: 893.3 ± 1 kg/m3
283.15 K, 8001 kPa, Liquid
  mass density: 903 ± 0.9 kg/m3
283.15 K, 9001 kPa, Liquid
  mass density: 912.2 ± 0.9 kg/m3
283.15 K, 10001 kPa, Liquid
  mass density: 920.4 ± 0.8 kg/m3
283.15 K, 11001 kPa, Liquid
  mass density: 928.2 ± 0.8 kg/m3
283.15 K, 12000 kPa, Liquid
  mass density: 935.5 ± 0.8 kg/m3
283.15 K, 13001 kPa, Liquid
  mass density: 942.2 ± 0.8 kg/m3
283.15 K, 14001 kPa, Liquid
  mass density: 948.3 ± 0.8 kg/m3
283.15 K, 15000 kPa, Liquid
  mass density: 954.3 ± 0.8 kg/m3
283.15 K, 16001 kPa, Liquid
  mass density: 960.1 ± 0.8 kg/m3
283.15 K, 17001 kPa, Liquid
  mass density: 965.5 ± 0.8 kg/m3
283.15 K, 18002 kPa, Liquid
  mass density: 970.8 ± 0.7 kg/m3
283.15 K, 19001 kPa, Liquid
  mass density: 975.7 ± 0.7 kg/m3
283.15 K, 20000 kPa, Liquid
  mass density: 980.4 ± 0.7 kg/m3
293.15 K, 1011 kPa, Gas
  mass density: 19.8 ± 0.2 kg/m3
293.15 K, 2001 kPa, Gas
  mass density: 41 ± 0.2 kg/m3
293.15 K, 3001 kPa, Gas
  mass density: 66.2 ± 0.2 kg/m3
293.15 K, 4000 kPa, Gas
  mass density: 97.3 ± 0.2 kg/m3
293.15 K, 5000 kPa, Gas
  mass density: 140.4 ± 0.3 kg/m3
293.15 K, 5600 kPa, Gas
  mass density: 182.2 ± 0.5 kg/m3
293.15 K, 5800 kPa, Liquid
  mass density: 774.1 ± 1.2 kg/m3
293.15 K, 6001 kPa, Liquid
  mass density: 783.3 ± 1.2 kg/m3
293.15 K, 7003 kPa, Liquid
  mass density: 809.1 ± 1.1 kg/m3
293.15 K, 8001 kPa, Liquid
  mass density: 827.5 ± 1 kg/m3
293.15 K, 9002 kPa, Liquid
  mass density: 843.2 ± 0.9 kg/m3
293.15 K, 10001 kPa, Liquid
  mass density: 856.1 ± 0.9 kg/m3
293.15 K, 11001 kPa, Liquid
  mass density: 867.7 ± 0.9 kg/m3
293.15 K, 12000 kPa, Liquid
  mass density: 877.9 ± 0.8 kg/m3
293.15 K, 13000 kPa, Liquid
  mass density: 887.3 ± 0.8 kg/m3
293.15 K, 14000 kPa, Liquid
  mass density: 895.9 ± 0.8 kg/m3
293.15 K, 15003 kPa, Liquid
  mass density: 904 ± 0.8 kg/m3
293.15 K, 16003 kPa, Liquid
  mass density: 911.5 ± 0.8 kg/m3
293.15 K, 17001 kPa, Liquid
  mass density: 918.6 ± 0.8 kg/m3
293.15 K, 18002 kPa, Liquid
  mass density: 925 ± 0.8 kg/m3
293.15 K, 19002 kPa, Liquid
  mass density: 931.2 ± 0.8 kg/m3
293.15 K, 20000 kPa, Liquid
  mass density: 937.1 ± 0.8 kg/m3
